# Test results reported in PubChem BioAssay (NCI).
#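 A five-concentration, 48-hour dose response in 96-well plates underlies each endpoint, interpolated linearly between surrounding concentrations. At the GI50, growth is halved. TGI: concentration producing complete growth inhibition.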
# How the values were obtained:
# Assay in all cases: NCI anticancer screen, dose series, 48 h
# 786-0 renal = test system: 786-0 renal
# MALME-3M melanoma = test system: MALME-3M melanoma
# MOLT-4 leukemia = test system: MOLT-4 leukemia
# NCI-H522 lung = test system: NCI-H522 lung
# NCI/ADR-RES ovarian = test system: NCI/ADR-RES ovarian
# PC-3 prostate = test system: PC-3 prostate
# SK-MEL-28 melanoma = test system: SK-MEL-28 melanoma
# SNB-19 CNS = test system: SNB-19 CNS
# SW-620 colon = test system: SW-620 colon
# UACC-257 melanoma = test system: UACC-257 melanoma
Compound,TGI (786-0 renal),TGI (MALME-3M melanoma),TGI (MOLT-4 leukemia),TGI (NCI-H522 lung),TGI (NCI/ADR-RES ovarian),TGI (PC-3 prostate),TGI (SK-MEL-28 melanoma),TGI (SNB-19 CNS),TGI (SW-620 colon),TGI (UACC-257 melanoma),GI50 (NCI-H522 lung),GI50 (PC-3 prostate),GI50 (SNB-19 CNS),GI50 (UACC-257 melanoma)
CN(NC(=O)/C(=C/c1ccc(O)cc1)NC(=O)c1ccccc1)c1ccnc2cc(Cl)ccc12,35.8 µM,39.8 µM,43 µM,60.7 µM,38 µM,32.7 µM,38.1 µM,32.6 µM,47.2 µM,33.9 µM,,,,
COC(c1ccsc1)C(C#N)(C#N)N=Cc1ccsc1 (configuration not stated),37.9 µM,29.8 µM,43.3 µM,21.3 µM,53.1 µM,27.5 µM,33.1 µM,55.3 µM,28.4 µM,29.6 µM,,,,
COc1cc(/C=C2\C[C@H]3[C@@H]4CC=C5C[C@@H](N6CCCC6)CC[C@]5(C)[C@H]4CC[C@]3(C)[C@H]2O)cc(OC)c1OC,10.8 µM,23.9 µM,> 56.2 µM,26.7 µM,40.8 µM,28.8 µM,35 µM,35.8 µM,> 61.4 µM,28.5 µM,,,,
Oc1ccc2c(c1)-c1c(c3cc(O)ccc3n1CCN1CCOCC1)CC2,53.3 µM,,60.4 µM,40.4 µM,73.9 µM,54.4 µM,61.9 µM,> 100 µM,71.2 µM,> 100 µM,,,,
O=S(=O)(c1cc(Cl)ccc1Cl)N1CCN(S(=O)(=O)c2cc(Cl)ccc2Cl)CC1,> 100 µM,> 100 µM,> 100 µM,> 100 µM,> 100 µM,> 100 µM,> 100 µM,> 100 µM,> 100 µM,> 100 µM,,,,
C/C(O)=C/c1nc2ccccc2nc1/C=C(/C)O,45.8 µM,50.7 µM,46.5 µM,27.7 µM,93.2 µM,> 100 µM,> 100 µM,> 100 µM,> 100 µM,41 µM,,,,
CCCCC1(N=[N+]=[N-])C(=O)c2cccc3c2N(CCC3)C1=O (configuration not stated),> 100 µM,> 100 µM,> 100 µM,> 100 µM,> 100 µM,> 100 µM,> 100 µM,> 100 µM,> 100 µM,> 100 µM,,,,
O=C(CCc1cccc(O)c1)NCCc1cccc(O)c1,> 100 µM,> 100 µM,> 100 µM,> 100 µM,> 100 µM,> 100 µM,> 100 µM,> 100 µM,,> 100 µM,,,,
CC(=O)Nc1ccc(S(=O)(=O)Nc2nnc(S(N)(=O)=O)s2)cc1,> 100 µM,> 100 µM,> 100 µM,> 100 µM,> 100 µM,,,> 100 µM,> 100 µM,,,,,
CCNc1nc(N)c(C(=O)c2ccc(Cl)cc2)s1,> 100 µM,> 100 µM,> 100 µM,,> 100 µM,> 100 µM,> 100 µM,58.8 µM,> 100 µM,> 100 µM,,,,
Cc1c2c(n3c(nc4ccccc43)c1C#N)SCC2,> 10 µM,> 10 µM,> 10 µM,,> 10 µM,> 10 µM,> 10 µM,> 10 µM,> 10 µM,> 10 µM,,,,
COc1cc2c(cc1OC)C1CN3C(=O)CCC3C(O)C1c1cc(OC)c(OC)cc1-2 (configuration not stated),> 100 µM,> 100 µM,> 100 µM,> 100 µM,> 100 µM,,> 100 µM,> 100 µM,> 100 µM,> 100 µM,,,,
CN(C)N=Nc1ccc([N+](=O)[O-])cc1C(N)=O,,> 100 µM,> 100 µM,> 100 µM,> 100 µM,,> 100 µM,> 100 µM,> 100 µM,> 100 µM,,,,
Cc1c(CNc2ccc(Cl)c(C(=O)NC(CC(=O)O)C(=O)O)c2)ccc2nc(N)nc(N)c12 (configuration not stated),> 1000 µM,692 µM,> 1000 µM,682 µM,> 1000 µM,> 1000 µM,,> 1000 µM,> 1000 µM,> 1000 µM,211 µM,< 0.01 µM,0.382 µM,2.97 µM
CSC1=Nc2ccccc2-c2nc(-c3ccccc3)cc(-c3ccccc3)c2C1,26 µM,,> 100 µM,40.1 µM,> 100 µM,> 100 µM,> 100 µM,> 100 µM,> 100 µM,> 100 µM,,,,
O=c1c2ccccc2oc2c1ccc1ncccc12,48.9 µM,52.2 µM,> 100 µM,59.1 µM,36.3 µM,> 100 µM,> 100 µM,,42 µM,70.6 µM,,,,
Nn1c(Cc2ccc(Cl)cc2)n[nH]c1=O,> 100 µM,> 100 µM,> 100 µM,> 100 µM,> 100 µM,,> 100 µM,> 100 µM,> 100 µM,> 100 µM,,,,
COC(=O)c1c(OC(C)=O)ccc2c1c1c(OC(C)=O)c3ccccc3c(OC(C)=O)c1n2Cc1cc(OC)cc(OC)c1,> 100 µM,70.6 µM,> 100 µM,9.2 µM,> 100 µM,> 100 µM,> 100 µM,> 100 µM,,> 100 µM,,,,
CO/C(=N\N=C\c1ccc(Cl)cc1)c1ccncc1,,> 100 µM,> 100 µM,> 100 µM,,,> 100 µM,> 100 µM,> 100 µM,> 100 µM,,,,
Cc1cn(C2CC(O)C(CO)C2C)c(=O)[nH]c1=O (configuration not stated),,> 100 µM,> 100 µM,> 100 µM,,,> 100 µM,> 100 µM,> 100 µM,> 100 µM,,,,
CC(C)OC(=O)c1ccc(NCC2=CC(=O)C=CC2=O)cc1Cl,> 48.3 µM,,> 30.7 µM,,> 100 µM,> 100 µM,56.5 µM,44.2 µM,> 53.5 µM,33.9 µM,,,,
COc1ccc(/C=N\N2CC(=O)N3C4C=CC(CC4)N3C2=O)cc1 (configuration not stated),> 100 µM,,> 100 µM,,> 100 µM,> 100 µM,> 100 µM,> 100 µM,> 100 µM,> 100 µM,,,,
Nc1ccc2c(c1)C1Oc3ccccc3CC1CO2 (configuration not stated),> 100 µM,> 100 µM,> 100 µM,> 100 µM,> 100 µM,> 100 µM,,,> 100 µM,> 100 µM,,,,
